Measured values published in patent US20250170129A1, “SENOTHERAPEUTIC AGENTS AND ALPHA-KLOTHO POLYPEPTIDES” (Mayo Foundation for Medical Education and Researc, priority 2022, published 2025).

Tests used:
[1] = system: activin A; assay: Activin A mRNA in kidney of old INK-ATTAC mice (qPCR); type: in vivo, mouse; conditions: 10 mg/kg i.p. (FIG. 3H)
Protocol: (§1) FIGS. 3A-3I. Genetic clearance of highly p16^Ink4a-expressing cells increases α-Klotho. Young (8-month-old) or old (27-29-month-old) INK-ATTAC male mice were treated with vehicle or AP20187 (n=3 young+vehicle; n=3 young+AP20187; n=7 old+vehicle; n=7 old+AP20187) to dimerize the FKBP-caspase-8 fusion protein expressed in highly p16^Ink4a-expressing cells to selectively eliminate […]. AP20187 (10 mg/kg) or vehicle was administered i.p. every 2 weeks for 6 weeks. FIG. 3A) Schematic view of treatments. FIG. 3B) Kidney α-Klotho mRNA was assayed by qPCR. One-way ANOVA, F=4.81, p=0.01, R^2=0.46; *p=0.03, **p<0.01. FIG. 3C) α-Klotho protein was assayed relative to GAPDH (Western blots in FIG. 13). One-way ANOVA: F=4.81, p=0.01, R^2=0.46; *p<0.05, ****p<0.0001. FIG. 3D) Mouse urine was collected 2 days after the last dose of AP20187. Urinary α-Klotho was assayed by ELISA and expressed as a function of creatinine. One-way ANOVA, F=61.53, p<0.00001, R^2=0.90; *p=0.04, ****p<0.0001. Choroid Plexus (FIG. 3E) α-Klotho protein was assayed by immunofluorescence. […]
(§2) Each cDNA sample was generated by reverse transcription using 1 μg RNA following the manufacturer's protocol (Thermo Fisher Scientific). […] Data were analysed by the ΔΔCt method.
(§3) Next, it was determined if removal of p16^Ink4a-expressing cells, many of which are senescent, increases α-Klotho in old mice. […]

[2] = system: α-Klotho; assay: Senolytics / AP20187 in young INK-ATTAC mice, kidney and urinary α-Klotho; type: in vivo, mouse; conditions: young (3-month-old) INK-ATTAC mice; Dasatinib (5 mg/kg) plus Quercetin (50 mg/kg) or AP20187 (10 mg/kg) (FIG. 12A)
Protocol: FIGS. 12A-12B. […] 3-month-old female INK-ATTAC mice were treated with vehicle, Dasatinib (5 mg/kg) plus Quercetin (50 mg/kg), or AP20187 (10 mg/kg). FIG. 12A) Kidneys were harvested and lysed to assay α-Klotho protein by Western blotting. FIG. 12B) Urinary α-Klotho in the same cohort was assayed by ELISA after a second and third treatment with senolytic agents and expressed as a function of creatinine.
α-Klotho was assayed by ELISA in 1:100 diluted mouse urine (IBL America, #27601). Human urine α-Klotho was assayed by ELISA (IBL America, #27998, RRID:AB_2750859). Urine α-Klotho measurements are expressed as a function of urine volume, creatinine (R&D Systems, #KGE005), and/or cystatin C (R&D Systems, #MSCTC0).
Tissue extracts were homogenized using a Bead Mill 24 homogenizer (Waltham) and lysed in NETN buffer (20 mM Tris-HCl, pH 8.0, 100 mM NaCl, 1 mM EDTA, 0.5% Nonidet P-40), 5 mM NaF, a protease inhibitor cocktail (Millipore Sigma), and 5 mM nicotinamide. After incubating 30 minutes at 4° C., samples were centrifuged at 15,000 rpm for 10 minutes at 4° C. Protein concentrations of the supernatants were determined by the Bradford protein assay (BioRad). Lysates were separated by SDS-PAGE and transferred by electrophoresis to PVDF membranes (Millipore Sigma). […]

[3] = system: α-Klotho; assay: Clearance of p16Ink4a-expressing cells / senolytics in old INK-ATTAC mice, α-Klotho in kidney, urine, brain; type: in vivo, mouse; conditions: 10 mg/kg i.p.
Protocol: AP20187 (10 mg/kg) or vehicle was administered i.p. every 2 weeks for 6 weeks. […] FIG. 3B) Kidney α-Klotho mRNA was assayed by qPCR. One-way ANOVA, F=4.81, p=0.01, R^2=0.46; *p=0.03, **p<0.01. FIG. 3C) α-Klotho protein was assayed relative to GAPDH (Western blots in FIG. 13). One-way ANOVA: F=4.81, p=0.01, R^2=0.46; *p<0.05, ****p<0.0001. FIG. 3D) Mouse urine was collected 2 days after the last dose of AP20187. Urinary α-Klotho was assayed by ELISA and expressed as a function of creatinine. One-way ANOVA, F=61.53, p<0.00001, R^2=0.90; *p=0.04, ****p<0.0001. Choroid Plexus (FIG. 3E) α-Klotho protein was assayed by immunofluorescence. One-way ANOVA, F=20.98, R^2=0.80, **p<0.01, ****p<0.0001. Hippocampal (FIG. 3F) and cerebellar (FIG. 3G) α-Klotho mRNA was assayed by qPCR. […] Means±SEM; one-way ANOVA and post hoc Tukey's tests; F=3.84, p=0.038, R^2=0.40; *p=0.04 in (FIG. 3F); *p=0.04, F=7.87, p<0.01, R^2=0.60; *p=0.03 in (FIG. 3G); F=10.85; p<0.001, R^2=0.64; *p=0.03, ***p<0.0001 in (FIG. 3H); F=5.49; p=0.01, R^2=0.49; *p<0.05, **p=0.01 in (FIG. 3I).
Old (25-26-month-old) INK-ATTAC male mice were treated with vehicle or AP20187 or D+Q (n=7). AP20187 or D+Q or vehicle was administered every 2 weeks for 6 weeks. Mouse urine was collected 5 days after the last dose of AP20187 or D+Q. Urinary α-Klotho was assayed by ELISA and expressed as a function of creatinine (FIG. 10A) or Cystatin C (FIG. 10B). One-way ANOVA, A: *p=0.038, **p=0.0066, B: *p=0.048, **p=0.0048.
INK-ATTAC mice were as described elsewhere (Baker et al., Nature, 479(7372):232-6 (2011)). Briefly, in INK-ATTAC mice, the ATTAC gene is driven by a senescence-related p16^Ink4a promoter fragment. The fusion protein product of the ATTAC “suicide” gene contains a mutated FKBP moiety that can be cross-linked by AP20187, thereby activating the ATTAC protein caspase-8 moieties, causing apoptosis. […]
Each cDNA sample was generated by reverse transcription using 1 μg RNA following the manufacturer's protocol (Thermo Fisher Scientific). […] Data were analysed by the ΔΔCt method. […]

[4] = system: IL-1α; assay: IL-1α mRNA in hippocampus of old INK-ATTAC mice (qPCR); type: in vivo, mouse; conditions: 10 mg/kg i.p. (FIG. 3I)
Protocol: as §1, §2, §3

[5] = system: α-Klotho; assay: Senolytics on non-senescent human astrocytes, α-Klotho Western blot and qPCR; type: cell-based; conditions: Dasatinib (200 nM) plus Quercetin (10 μM) or Fisetin (10 μM), 48 hours
Protocol: FIGS. 11A-11C. […] Non-senescent human astrocytes were treated with vehicle, Dasatinib (200 nM) plus Quercetin (10 μM), or Fisetin (10 μM) for 48 hours. FIG. 11A) α-Klotho was assayed by Western blotting with GAPDH as the loading control. FIG. 11B) α-Klotho mRNA was assayed by qPCR. FIG. 11C) Non-senescent human adipose progenitor cells were treated with Dasatinib (500 nM) plus Quercetin ([…]) or vehicle for 48 hours. α-Klotho mRNA was assayed by qPCR.

[6] = system: α-Klotho; assay: Senolytics in naturally-aged mice, α-Klotho in urine, kidney, brain; type: in vivo, mouse; conditions: naturally-aged male mice 28-29-month-old, oral, vs vehicle (FIG. 4A)
Protocol: Wild-type C57BL/6 mice were randomly assigned to D+Q, Fisetin (F), or vehicle treatments. Treatments were started at age 26-27 months for old animals, and for DIO mice after 7-8 months of high fat-feeding beginning at 4 months of age. Mice were treated every 20 days with D+Q, F, or vehicle by oral gavage for 3 consecutive days in each of 3 cycles over 2 months (9 doses in total).

[7] = system: α-Klotho; assay: Senolytics in mice transplanted with senescent preadipocytes, urinary α-Klotho; type: in vivo, mouse; conditions: young mice transplanted i.p. with senescent cells, treated after 3 months (FIG. 4C)
Protocol: FIGS. 4A-4D. Senolytics increase urinary and kidney α-Klotho in old or obese mice. FIG. 4A) Naturally-aged male mice (28-29-month-old, n=10 in each group) were treated with vehicle, Dasatinib plus Quercetin (D+Q), or Fisetin. Urinary α-Klotho was measured by ELISA and expressed as a function of creatinine. One-way ANOVA: F=6.39; p<0.0^5, R^2=0.30; *p=0.02, **p<0.01. FIG. 4B) DIO mice (male, 10-month-old, n=8) were treated with vehicle or D+Q and urinary α-Klotho was assayed by ELISA and expressed as a function of creatinine. Unpaired T test; **p<0.01. FIG. 4C) Six-month-old male mice (n=6 in each group) were transplanted i.p. with senescent preadipocytes. After 3 months, they were treated with vehicle, D+Q, or Fisetin. Urinary α-Klotho was assayed by ELISA and expressed as a function of creatinine. One-way ANOVA and post hoc Tukey's tests: Kruskal-Wallis statistic=10.19; *p=0.02, **p<0.01. FIG. 4D) Kidney α-Klotho protein was also assayed in the same transplanted mice by Western blotting. One-way ANOVA: F=24.24; p<0.001, R^2=0.83; ***p<0.001. […]
α-Klotho was assayed by ELISA in 1:100 diluted mouse urine (IBL America, #27601). […] Urine α-Klotho measurements are expressed as a function of urine volume, creatinine (R&D Systems, #KGE005), and/or cystatin C (R&D Systems, #MSCTC0).

[8] = system: α-Klotho; assay: Recombinant SASP factor treatment of non-senescent HBAs, α-Klotho qPCR; type: cell-based, human; conditions: non-senescent HBAs treated with recombinant protein (FIG. 1F)
Source text: (§4) FIGS. 1A-1F. Senescent cell conditioned medium decreases α-Klotho; blocking particular SASP factors with neutralizing antibodies partially restores α-Klotho. FIGS. 1A-1C) Conditioned media (CM) collected from senescent or non-senescent (FIG. 1A) human primary kidney endothelial cells (HKEs; one-way ANOVA: F=19.10, p<0.0001, R^2=0.89; n=3; ****p<0.0001); (FIG. 1B) human umbilical vein endothelial cells (HUVECs; one-way ANOVA: F=3.02, p=0.02, R^2=0.58, n=3; *p=0.02, **p=0.01); or (FIG. 1C) human brain astrocytes (HBAs; one-way ANOVA: F=7.93, p=0.02, R^2=0.66; n=5; ***p<0.001, *p=0.03) were applied to non-senescent HKEs, HUVECs, or HBAs, respectively, with or without antibodies against PAI-1, CXCL1, IL-6, activin A, TNF-α, IL-1α, IL-1β, or IL-18 for 48 hours. α-Klotho mRNA was assayed by qPCR. Means SEM. FIGS. 1D-1F) Primary HKEs (FIG. 1D; n=4), HUVECs (FIG. 1E; n=4), or HBAs (FIG. 1F; n=4) were treated with recombinant activin A or IL-1α. α-Klotho was assayed by qPCR 24 hours after treatments. Means±SEM; unpaired T-tests; ***p<0.001, ****p<0.0001. […]
as §2

[9] = system: α-Klotho; assay: Recombinant SASP factor treatment of non-senescent HUVECs, α-Klotho qPCR; type: cell-based, human; conditions: non-senescent HUVECs treated with recombinant protein (FIG. 1E)
Source text: as §4, §2

[10] = system: α-Klotho; assay: Recombinant SASP factor treatment of non-senescent HKEs, α-Klotho qPCR; type: cell-based, human; conditions: non-senescent HKEs treated with recombinant protein (FIG. 1D)
Source text: as §4, §2

Molecule: CC[C@H](C(=O)N1CCCC[C@H]1C(=O)O[C@H](CCc1ccc(OC)c(OC)c1)c1cccc(OCC(=O)NCC(CNC(=O)COc2cccc([C@@H](CCc3ccc(OC)c(OC)c3)OC(=O)[C@@H]3CCCCN3C(=O)[C@@H](CC)c3cc(OC)c(OC)c(OC)c3)c2)CN(C)C)c1)c1cc(OC)c(OC)c(OC)c1 [AP20187]
- activin A in kidneys (mRNA, qPCR) [1]: decreased
- kidney α-Klotho (protein, Western blotting) [2]: did not increase
- urinary α-Klotho (ELISA, function of creatinine) ([3]; vs vehicle (FIG. 3D, FIG. 10)): increased
- Kidney α-Klotho (mRNA by qPCR, protein by Western blot) ([3]; vs vehicle (FIGS. 3B-C)): increased
- Brain α-Klotho (choroid plexus protein IF; hippocampal and cerebellar mRNA) ([3]; vs vehicle (FIGS. 3E-G)): increased
- IL-1α in brains (hippocampus mRNA, qPCR) [4]: decreased

Molecule: O=c1c(O)c(-c2ccc(O)c(O)c2)oc2cc(O)ccc12 [F, Fisetin]
- α-Klotho (Western blotting, mRNA qPCR) [5]: did not increase
- urine α-Klotho (ELISA, function of creatinine) [6]: increased
- urinary α-Klotho (ELISA, function of creatinine) [7]: increased

B1: recombinant activin A: recombinant human activin A (R&D Systems, #338-AC) (protein, UniProt P08476 311-426, looked up)
Inhibin beta A chain: GLECDGKVNICCKKQFFVSFKDIGWNDWIIAPSGYHANYCEGECPSHIAGTSGSSLSFHSTVINHYRMRGHSPFANLKSCCVPTKLRPMSMLYYDDGQNIIKKDIQNMIVEECGCS
- expression of α-Klotho (qPCR) [8]: decreased expression of α-Klotho
- expression of α-Klotho (qPCR) [9]: decreased expression of α-Klotho
- expression of α-Klotho (qPCR) [10]: decreased expression of α-Klotho

B2: IL-1α: recombinant human IL-1α protein (R&D Systems, #00-LA-010) (protein, UniProt P01583 113-271, looked up)
Interleukin-1 alpha: SAPFSFLSNVKYNFMRIIKYEFILNDALNQSIIRANDQYLTAAALHNLDEAVKFDMGAYKSSKDDAKITVILRISKTQLYVTAQDEDQPVLLKEMPEIPKTITGSETNLLFFWETHGTKNYFTSVAHPNLFIATKQDYWVCLAGGPPSITDFQILENQA
- expression of α-Klotho (qPCR) [8]: decreased expression of α-Klotho
- expression of α-Klotho (qPCR) [9]: decreased expression of α-Klotho
- expression of α-Klotho (qPCR) [10]: decreased expression of α-Klotho
